Results: patent US20100204131A1, “USE OF A PEPTIDE AS A THERAPEUTIC AGENT” (priority 2007, published 2010)
No end group written: not given here.

Experiments:
HIV-1IIIB = assay: HIV-1 antiviral assay in CEM-SS cells; settings: CEM-SS cells infected with HIV-1IIIB
[1] = tested on: hepatitis B virus (HBV) ayw strain; assay: HBV experimental assay system (HepG2-2.2.15, TaqMan PCR); type: cell-based; settings: 10 micrograms per ml; HepG2-2.2.15 cells; six days; HBV DNA by TaqMan PCR
Text: HepG2-2.2.15 is a stable cell line containing the hepatitis B virus (HBV) ayw strain genome (ATCC Cat. No. CRL-11997). Antiviral compounds blocking any late step of viral replication such as transcription, translation, pregenome encapsidation, reverse transcription, particle assembly and release can be identified and characterized using this cell line. In this assay, an active compound will reduce the production of secreted HBV from cells, measured by utilizing real time quantitative PCR (TaqMan) assay to directly and accurately measure HBV DNA copies.
HepG2-2.2.15 cells were plated in 96-well microtiter plates. After 16-24 hours the confluent monolayer of HepG2-2.2.15 cells was washed and the medium was replaced with complete medium containing test peptides—10 micrograms per ml—in duplicate. […] Six days following the initial administration of the peptides, the cell culture supernatants was collected, treated with pronase and DNAse and then used in a real-time quantitative TaqMan PCR assay. The PCR-amplified HBV DNA was detected in real-time by monitoring increases in fluorescence signals that result from the exonucleolytic degradation of a quenched fluorescence probe molecule that hybridizes to the amplified HBV DNA. […] Antiviral activity was calculated from the reduction in HBV DNA levels (% virus control). […]

HUVEC = assay: Endothelial tube formation assay; settings: 10 micrograms per ml, 20 hours, average tubule length
Procedure: The endothelial tube formation assay is based on the ability of endothelial cells to form three-dimensional capillary-like tubular structures when cultured on a gel of basement membrane extract. […] Pre-labeled HUVEC with Calcein AM were seeded in a 96-well culture plate coated with extracellular metrix (Chemicon international Cat. ECM625) and treated with test peptides—10 micrograms per ml—in full growth medium. Positive control was vehicle only. The endothelial cells were allowed to form tubes foe 20 hours and were then examined under an inverted fluorescent microscope. Duplicate wells for each treatment were photographed and quantitatevily analyzed for an average tubule length using image analysis software ImageProPlus. Raw data were expressed as average tubule lengths in pixels ±standard deviation. Statistic p values were computed using the Student's t-test.

IFNγ spleen cells = assay: Th1/Th2 cytokine profiling assay: IFNγ; settings: 10 micrograms per ml; spleen cells of Ovalbumin-immunized Balb/c mice restimulated with Ovalbumin 10 micrograms/ml; 72 hours; supernatant
Text: (§1) The Balb/c mice (originated in 1923, it is a popular strain and is used in many different research disciplines. Also classified as an inbred from the production of 20 or more successive brother-sister matings, the Balb/c mouse is albino and small in size) were immunized on Days 1, 15, and 29 with Ovalbumin (Ovalbumin is the main protein found in egg white, commonly used to stimulate an immunological reaction in test animals) in PBS (5 micrograms/injection). On day 50, spleens of the mice were harvested (3 weeks after last boost with Ovalbumin). […] Thereafter, additional Ovalbumin was added to the cells at 10 micrograms/ml for in vitro restimulation of the cells. 72 hours later, cell supernatants were harvested and assayed using the Becton Dickinson Mouse Th1/Th2 Cytokine CBA Kit. This kit can be used to measure Interleukin-2 (IL-2), Interleukin-4 (IL-4), Interleukin-5 (IL-5), Interferon-γ (IFN-γ), and Tumor Necrosis Factor-α (TNF-α) protein levels in a single sample.

IL-2 spleen cells = assay: Th1/Th2 cytokine profiling assay: IL-2; settings: 10 micrograms per ml; spleen cells of Ovalbumin-immunized Balb/c mice restimulated with Ovalbumin 10 micrograms/ml; 72 hours; supernatant
Text: (§2) The Balb/c mice (originated in 1923, it is a popular strain and is used in many different research disciplines. Also classified as an inbred from the production of 20 or more successive brother-sister matings, the Balb/c mouse is albino and small in size) were immunized on Days 1, 15, and 29 with Ovalbumin (Ovalbumin is the main protein found in egg white, commonly used to stimulate an immunological reaction in test animals) in PBS (5 micrograms/injection). On day 50, spleens of the mice were harvested (3 weeks after last boost with Ovalbumin). […] Thereafter, additional Ovalbumin was added to the cells at 10 micrograms/ml for in vitro restimulation of the cells. 72 hours later, cell supernatants were harvested and assayed using the Becton Dickinson Mouse Th1/Th2 Cytokine CBA Kit.

IL-5 spleen cells = assay: Th1/Th2 cytokine profiling assay: IL-5; settings: 10 micrograms per ml; spleen cells of Ovalbumin-immunized Balb/c mice restimulated with Ovalbumin 10 micrograms/ml; 72 hours; supernatant
Text: as §2

IL-4 spleen cells = assay: Th1/Th2 cytokine profiling assay: IL-4; settings: 10 micrograms per ml; spleen cells of Ovalbumin-immunized Balb/c mice restimulated with Ovalbumin 10 micrograms/ml; 72 hours; supernatant
Text: as §2

[2] = tested on: Primary Human endothelial cells (HUVEC); assay: Endothelial cell migration assay; settings: 10 micrograms per ml, 22 hours, transwell
Procedure: Primary Human endothelial cells (HUVEC) were seeded in insert chambers with 3 micrometer pore size of multi-transwell plate for 6 hours at 37° C. in Endothelial Cell Basal Medium (EBM) supplemented with 0.1% bovine serum albumin. Thereafter, designated concentration of testing peptides -10 micrograms per ml—was added in duplicate wells. The endothelia were allowed to migrate for 22 hours at 37° C., then, migrated cells were fixed and stained with Hoechst 33342 dye. Images of 3 fields per insert were taken and the number of migrated cells per field were quantified using the ImageProPlus software. Data were analyzed for the average number of the migrated cells and standard deviation of six data points for each treatment condition. […] Statistic p values were computed using the Student's t-test.

TNF-a spleen cells = assay: Th1/Th2 cytokine profiling assay: TNF-a; settings: 10 micrograms per ml; spleen cells of Ovalbumin-immunized Balb/c mice restimulated with Ovalbumin 10 micrograms/ml; 72 hours; supernatant
Text: as §1

HCMV strain AD169 = assay: HCMV plaque formation assay in MRC-5 cells; settings: for inhibition of HCMV plaque formation as compared to the virus control: 10 micrograms per ml, MRC-5 cells, 7-10 days

| Molecule | antiviral activity of positive control compounds (HIV-1IIIB) | inhibition of HBV replication on tested liver cells [1] | inhibition of the tube formation of endothelial cells (HUVEC) | IFNγ spleen cells; TH1 response (% of control) (IFNγ spleen cells) | IL-2 spleen cells (% of control) (IL-2 spleen cells) | IL-5 spleen cells; TH2 response (% of control) (IL-5 spleen cells) | IL-4 spleen cells; TH2 response (% of control) (IL-4 spleen cells) | inhibition of the migration of human endothelial cells [2] | TNF-a spleen cells; TH1 response (% of control) (TNF-a spleen cells) | inhibition of HCMV plaque formation as compared to the virus control (HCMV strain AD169) | antiviral activity of positive control compound (HCMV strain AD169; positive control, HCMV in MRC-5 cells) |
| --- | --- | --- | --- | --- | --- | --- | --- | --- | --- | --- | --- |
| Cc1cn([C@H]2C[C@H](N=[N+]=[N-])[C@@H](CO)O2)c(=O)[nH]c1=O [AZT] | expected levels of antiviral activity |  |  |  |  |  |  |  |  |  |  |
| Ser-Tyr-Ser-Met-Glu-His-Phe-Arg-Trp-Gly-Lys-Pro-Val-Gly-Lys-Lys-Arg-Arg-Pro-Val-Lys-Val-Tyr-Pro-OH (SYSMEHFRWGKPVGKKRRPVKVYP-OH) [peptide 1] |  | no effect | 25% | 103.7 % of control | 149.2 % of control | 82.6 % of control | 132.1 % of control | did not inhibit | 97.0 % of control | did not inhibit |  |
| Ala-Ser-Gln-Phe-Glu-Thr-Ser-OH (ASQFETS-OH) [peptide 2] |  | no effect | 27% | 94.7 % of control | 72.5 % of control | 57.6 % of control | 0.0 % of control | 28% | 110.7 % of control | did not inhibit |  |
| CC(C)(C)NC(=O)[C@@H]1CN(Cc2cccnc2)CCN1C[C@@H](O)C[C@@H](Cc1ccccc1)C(=O)N[C@H]1c2ccccc2C[C@H]1O [indinavir] | expected levels of antiviral activity |  |  |  |  |  |  |  |  |  |  |
| Nc1nc(O)c2ncn(COC(CO)CO)c2n1 [Ganciclovir, reference compound] |  |  |  |  |  |  |  |  |  |  | expected levels of antiviral activity |
